IC50 data for 25 molecules are collected here from patent US20090036448A1, “PYRIMIDINE DERIVATIVES AND METHODS OF TREATMENT RELATED TO THE USE THEREOF” (TAISHO PHARMECUTICAL CO., LTD., priority 2004, published 2009).

Structures can show the parent of a compound that is named as a salt.

One experiment deals with MCH receptor (Homo sapiens, UniProt Q99705). The experiment is described as follows: FLIPR/FDSS6000 functional assay: intracellular Ca2+ changes evoked by MCH. Conditions: antagonist activity, 50 nM of MCH, [Ca2+]i by FLIPR or FDSS; read-out: IC50. Type of experiment: cell-based. From the text:
Subsequently, a functional based assay was used to confirm the lead hits, referred to as FLIPR™ (the Fluorometric Imaging Plate Reader) and FDSS6000™ (Functional Drug Screening System). This assay utilized a non-endogenous, constitutively active version of the MCH receptor.
The FLIPR and FDSS assays are able to detect intracellular Ca^2+ concentration in cells, which can be utilized to assess receptor activation and determine whether a candidate compound is an, for example, antagonist, inverse agonist or agonist to a Gq-coupled receptor. The concentration of free Ca^2+ in the cytosol of any cell is extremely low, whereas its concentration in the extracellular fluid and endoplasmic reticulum (ER) is very high. Thus, there is a large gradient tending to drive Ca^2+ into the cytosol across both the plasma membrane and ER. The FLIPR™ and FDSS6000™ systems (Molecular Devices Corporation, HAMAMATSU Photonics K.K.) are designed to perform functional cell-based assays, such as the measurement of intracellular calcium for high-throughput screening. The measurement of fluorescent is associated with calcium release upon activation of the Gq-coupled receptors.
Fluorometric Imaging Plate Reader system was used to allow for rapid, kinetic measurements of intracellular fluorescence in 96 well microplates (or 384 well microplates). Simultaneous measurements of fluorescence in all wells can be made by FLIPR or FDSS6000™ every second with high sensitivity and precision. These systems are ideal for measuring cell-based functional assays such as monitoring the intracellular calcium fluxes that occur within seconds after activation of the Gq coupled receptor.
Briefly, the cells are seeded into 96 well at 5.5×10^4 cells/well with complete culture media (Dulbecco's Modified Eagle Medium with 10% fetal bovine serum, 2 mM L-glutamine, 1 mM sodium pyruvate and 0.5 mg/mL G418, pH 7.4) for the assay next day. On the day of assay, the media is removed and the cells are incubated with 100 μl of loading buffer (4 μM Fluo-4-AM in complete culture media containing 2.5 mM Probenicid, 0.5 mg/ml and 0.2% bovine serum albumin) in 5% CO2 incubator at 37° C. for 1 hr. The loading buffer is removed, and the cells are washed with wash buffer (Hank's Balanced Salt Solution containing 2.5 mM Probenicid, 20 mM HEPES, 0.5 mg/mL and 0.2% bovine serum albumin, pH 7.4). One hundred fifty μl of wash buffer containing various concentrations of test compound is added to the cells, and the cells are incubated in 5% CO2 incubator at 37° C. for 30 min. Fifty μl of wash buffer containing various concentration of MCH are added to each well, and transient changes in [Ca^2+]i evoked by MCH are monitored using the FLIPR or FDSS in 96 well plates at Ex. 488 nm and Em. 530 nm for 290 second. When antagonist activity of compound is tested, 50 nM of MCH is used.
Use of FLIPR™ and FDSS6000™ can be accomplished by following manufacturer's instruction (Molecular Device Corporation and HAMAMATSU Photonics K.K.).
Regarding `Cc1nc(N[C@H]2CC[C@@H](NC(=O)c3ccc(F)cc3)CC2)cc(N(C)C)n1` [Example 7, N-(cis-4-{[6-(Dimethylamino)-2-methylpyrimidin-4-yl]amino}cyclohexyl)-4-fluorobenzamide hydrochloride], the IC50 amounted to 101 nM.

Staying with this experiment, now noted: class by percent of control at 10^−7 M or by IC50; antagonist activity, 50 nM of MCH; read-out: class.
Regarding `Cc1nc(N[C@H]2CC[C@@H](NC(=O)c3ccc(F)cc3)CC2)cc(N(C)C)n1` [Example 7, N-(cis-4-{[6-(Dimethylamino)-2-methylpyrimidin-4-yl]amino}cyclohexyl)-4-fluorobenzamide hydrochloride], the IC50 is 50 to 200 nM.
Regarding `Cc1nc(N[C@H]2CC[C@@H](NC(=O)c3cc(F)c(F)c(F)c3)CC2)cc(N(C)Cc2ccccc2)n1` [Example 175, N-[cis-4-({6-[Benzyl(methyl)amino]-2-methylpyrimidin-4-yl}amino)cyclohexyl]-3,4,5-trifluorobenzamide hydrochloride], the IC50 is greater than 200 nM.
Consider `Cn1cnc2c(N[C@H]3CC[C@@H](NC(=O)c4ccc(F)c(Cl)c4)CC3)ncnc21` [Example 190, 3-Chloro-4-fluoro-N-{cis-4-[(9-methyl-9H-purin-6-yl)amino]cyclohexyl}benzamide hydrochloride], for which the IC50 is greater than 200 nM.
Still for that read-out and setting: under `Cc1nc(N[C@H]2CC[C@@H](C(=O)Nc3cc(F)c(F)c(F)c3)CC2)cc(N(C)C)n1` [Example 193, cis-4-{[6-(Dimethylamino)-2-methylpyrimidin-4-yl]amino}-N-(3,4,5-trifluorophenyl)-cyclohexanecarboxamide hydrochloride] stands less than 50 nM; under `CN(CCO)c1nccc(N[C@H]2CC[C@@H](NC(=O)c3ccc(F)c(F)c3)CC2)n1` [Example 36, 3,4-Difluoro-N-[cis-4-({2-[(2-hydroxyethyl)(methyl)amino]pyrimidin-4-yl}amino)-cyclohexyl]benzamide hydrochloride], greater than 200 nM; under `CCN(C)c1nccc(N[C@H]2CC[C@@H](NC(=O)c3ccc(F)c(F)c3)CC2)n1` [Example 35, N-[cis-4-({2-[Ethyl(methyl)amino]pyrimidine-4-yl}amino)cyclohexyl]-3,4-difluorobenzamide hydrochloride], greater than 200 nM.
Consider `Cc1nc(N[C@H]2CC[C@@H](C(=O)Nc3ccc(F)c(F)c3)CC2)cc(N(C)C)n1` [Example 192, cis-N-(3,4-Difluorophenyl)-4-{[6-(dimethylamino)-2-methylpyrimidin-4-yl]amino}cyclohexanecarboxamide hydrochloride], for which the IC50 lay in the range of 50 to 200 nM.
For the molecule `Cc1nc(N[C@H]2CC[C@@H](C(=O)Oc3ccc(F)c(Cl)c3)CC2)cc(N(C)C)n1` [Example 194, 3-Chloro-4-fluorophenyl cis-4-{[6-(dimethylamino)-2-methylpyrimidin-4-yl]amino}-cyclohexanecarboxylate hydrochloride], the IC50 was greater than 200 nM.
On the same count and under the same terms, under `Cc1nc(N[C@H]2CC[C@@H](NC(=O)c3ccc(F)c(Cl)c3)CC2)c(F)c(N(C)C)n1` [Example 181, 3-Chloro-N-(cis-4-{[6-(dimethylamino)-5-fluoro-2-methylpyrimidin-4-yl]amino}cyclohexyl)-4-fluorobenzamide hydrochloride] stands greater than 200 nM; under `Cc1nc(N[C@H]2CC[C@@H](NC(=O)c3ccc(F)c(Cl)c3)CC2)cc(N2CCOCC2)n1` [Example 39, 3-Chloro-4-fluoro-N-{cis-4-[(2-methyl-6-morpholin-4-ylpyrimidin-4-yl)amino]cyclohexyl}-benzamide hydrochloride], 50 to 200 nM.
In the case of `Cc1cnc(N(C)C)nc1N[C@H]1CC[C@@H](NC(=O)c2ccc(F)c(Cl)c2)CC1` [Example 46, 3-Chloro-N-(cis-4-{[2-(dimethylamino)-5-methylpyrimidin-4-yl]amino}cyclohexyl)-4-fluorobenzamide hydrochloride], the IC50 was greater than 200 nM.
As to `Cc1nc(N[C@H]2CC[C@@H](C(=O)Nc3ccc(F)c(Cl)c3)CC2)cc(N(C)C)n1` [Example 191, cis-N-(3-Chloro-4-fluorophenyl)-4-{[6-(dimethylamino)-2-methylpyrimidin-4-yl]amino}cyclohexanecarboxamide hydrochloride], the IC50 was less than 50 nM.
In the case of `Cc1nc(N)cc(N[C@H]2CC[C@@H](NC(=O)c3cc(F)c(F)c(F)c3)CC2)n1` [Example 168, N-{cis-4-[(6-Amino-2-methylpyrimidin-4-yl)amino]cyclohexyl}-3,4,5-trifluorobenzamide hydrochloride], the IC50 was greater than 200 nM.
Consider `CN(C)c1cc(N[C@H]2CC[C@@H](NC(=O)c3ccc(F)c(Cl)c3)CC2)nc(Cc2ccccc2)n1` [Example 179, N-(cis-4-{[2-Benzyl-6-(dimethylamino)pyrimidin-4-yl]amino}cyclohexyl)-3-chloro-4-fluorobenzamide hydrochloride], for which the IC50 is less than 50 nM.
Regarding `CCNc1nccc(N[C@H]2CC[C@@H](NC(=O)c3ccc(F)c(F)c3)CC2)n1` [Example 34, N-(cis-4-{[2-(Ethylamino)pyrimidin-4-yl]amino}cyclohexyl)-3,4-difluorobenzamide hydrochloride], the IC50 was greater than 200 nM.
In the case of `Cc1nc(N[C@H]2CC[C@@H](NC(=O)c3cc(F)c(F)c(F)c3)CC2)cc(N(C)C)n1` [Example 11, N-(cis-4-{[6-(Dimethylamino)-2-methylpyrimidin-4-yl]amino}cyclohexyl)-3,4,5-trifluorobenzamide hydrochloride], the IC50 was less than 50 nM.
For the molecule `Cc1cc(N[C@H]2CC[C@@H](NC(=O)c3ccc(F)c(Cl)c3)CC2)nc(C)n1` [Example 171, 3-Chloro-N-{cis-4-[(2,6-dimethylpyrimidin-4-yl)amino]cyclohexyl}-4-fluorobenzamide hydrochloride], the IC50 was greater than 200 nM.
For the molecule `CN(C)c1cc(NC[C@H]2CC[C@@H](NC(=O)c3ccc(F)c(F)c3)CC2)ncn1` [Example 3, N-[cis-4-({[6-(Dimethylamino)pyrimidin-4-yl]amino}methyl)cyclohexyl]-3,4-difluorobenzamide hydrochloride], the IC50 is greater than 200 nM.
Same read-out and setting: for `CN(C)c1cc(N[C@H]2CC[C@@H](NC(=O)c3ccc(F)c(Cl)c3)CC2)nc(-c2ccccc2)n1` [Example 178, 3-Chloro-N-(cis-4-{[6-(dimethylamino)-2-phenylpyrimidin-4-yl]amino}cyclohexyl)-4-fluorobenzamide hydrochloride] the value was greater than 200 nM; for `Cc1nc(N[C@H]2CC[C@@H](CNC(=O)c3ccc(F)c(F)c3)CC2)cc(N(C)C)n1` [Example 29, N-[(cis-4-{[6-(Dimethylamino)-2-methylpyrimidin-4-yl]amino}cyclohexyl)methyl]-3,4-difluorobenzamide hydrochloride], greater than 200 nM.
Consider `Cn1ccc2c(N[C@H]3CC[C@@H](NC(=O)c4cc(F)c(F)c(F)c4)CC3)ncnc21` [Example 188, 3,4,5-Trifluoro-N-{cis-4-[(7-methyl-7H-pyrrolo[2,3-d]pyrimidin-4-yl)amino]cyclohexyl}benzamide hydrochloride], for which the IC50 was 50 to 200 nM.
As for `Cc1nc(N[C@H]2CC[C@@H](NC(=O)c3ccc(C(F)(F)F)c(F)c3)CC2)cc(N(C)C)n1` [Example 15, N-(cis-4-{[6-(Dimethylamino)-2-methylpyrimidin-4-yl]amino}cyclohexyl)-3-fluoro-4-(trifluoromethyl)benzamide hydrochloride], the IC50 is greater than 200 nM.
Still for that read-out and setting: under `Cc1nc(N[C@H]2CC[C@@H](NC(=O)c3cc(F)c(F)c(F)c3)CC2)cc(N(C)c2ccccc2)n1` [Example 174, 3,4,5-Trifluoro-N-[cis-4-({2-methyl-6-[methyl(phenyl)amino]pyrimidin-4-yl}amino)-cyclohexyl]benzamide hydrochloride] stands greater than 200 nM.
With `Cc1nc(N[C@H]2CC[C@@H](NC(=O)c3cc(Cl)cc(Cl)c3)CC2)cc(N(C)C)n1` [Example 21, 3,5-Dichloro-N-(cis-4-{[6-(dimethylamino)-2-methylpyrimidin-4-yl]amino}cyclohexyl)-benzamide hydrochloride], the IC50 was less than 50 nM.
Turning to `Cc1nc(N[C@H]2CC[C@@H](NC(=O)c3ccc(F)c(Cl)c3)CC2)cc(N2CCN(C)CC2)n1` [Example 41, 3-Chloro-4-fluoro-N-(cis-4-{[2-methyl-6-(4-methylpiperazin-1-yl)pyrimidin-4-yl]amino}-cyclohexyl)benzamide dihydrochloride], the IC50 was greater than 200 nM.
